2 compounds from paper doi:10.1101/212043v1 (biorxiv, 2017) can be followed below.

The target in assay [1] is T1, hsHDAC11 (Homo sapiens, UniProt Q96DB2).
T1 sequence (Q96DB2 1-347): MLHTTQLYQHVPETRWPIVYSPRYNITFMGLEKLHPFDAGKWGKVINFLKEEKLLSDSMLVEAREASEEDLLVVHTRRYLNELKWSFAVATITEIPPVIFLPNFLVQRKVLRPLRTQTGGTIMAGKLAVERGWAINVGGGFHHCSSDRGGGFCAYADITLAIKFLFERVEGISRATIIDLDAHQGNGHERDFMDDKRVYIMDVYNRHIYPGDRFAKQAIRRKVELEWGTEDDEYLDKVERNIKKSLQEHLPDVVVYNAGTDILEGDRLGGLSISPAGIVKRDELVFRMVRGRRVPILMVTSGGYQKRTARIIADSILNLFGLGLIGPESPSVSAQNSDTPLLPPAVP
The assay is described as follows: HPLC deacylation assay, Abz fluorescence. It is filed as biochemical. The note with it: […] trifluoroacetylated peptide substrate, […] enzyme, […]°C; activator.

In assay [2] the target is T1, hsHDAC11. Description: HPLC deacylation assay, Abz fluorescence. The note with it: read-out: % inhibition at 100 μM. It is filed as biochemical.

Turning to `CCCCCCCCCCCCCC(=O)SCCNC(=O)CCNC(=O)[C@H](O)C(C)(C)COP(=O)(O)OP(=O)(O)OC[C@H]1O[C@@H](n2cnc3c(N)ncnc32)[C@H](O)[C@@H]1OP(=O)(O)O` [myristoyl-CoA], the “fold stimulation at 100 μM” value at hsHDAC11 [1] amounted to 2.5 fold. Usually inhibition stands for the share of the control response that was lost under treatment. In the case of `CCCCCCCCCCCCCCCC(=O)SCCNC(=O)CCNC(=O)[C@H](O)C(C)(C)COP(=O)(O)OP(=O)(O)OC[C@H]1O[C@@H](n2cnc3c(N)ncnc32)[C@H](O)[C@@H]1OP(=O)(O)O` [palmitoyl-CoA], the inhibition at 100 µM on hsHDAC11 [2] was over 70%.
